Test results as given in CN112159318A, “一种具有抗病毒活性的大叶桉酮及其制备方法和用途” (Kunming Institute of Botany of CAS, priority 2020, dated 2021).
“Also recorded” adds a separate entry of the source.

Assays:
[1] = system: viral RNA polymerase [病毒RNA聚合酶]; conditions: adenosine analogue; cited from earlier work
Zika virus [寨卡病毒] [2] = conditions: cited from earlier work
AXL = assay: Flow cytometry of AXL expression on Vero cell surface; type: cell-based, African green monkey; conditions: Vero cells, 50 μM, 37°C 1 h, then ZIKV SZ-WIV01 MOI=1, 1 h
ZIKV SZ-WIV01 [3] = assay: Plaque assay, ZIKV SZ-WIV01 in Vero cells; type: cell-based, Zika virus; conditions: for EC50: Zika virus, Vero, 96 h
ZIKV NS5 = assay: Western blot of NS5 expression in HEK-293T cells; type: cell-based, Zika virus; conditions: 24 h
Vero cells [Vero细胞] = assay: MTT cytotoxicity in Vero cells; type: cell-based, African green monkey; conditions: Vero CC50 relative to anti-ZIKV EC50; strain not stated
[4] = MTT cytotoxicity in Vero cells; type: cell-based, African green monkey; conditions: monkey
ZIKV SZ-WIV01 [5] = assay: qRT-PCR of ZIKV RNA in supernatant of infected Vero cells; type: cell-based, Zika virus; conditions: ZIKV SZ-WIV01 500 PFU, 3.125-25 μM, 48 h
ZIKV SZ-WIV01 [6] = assay: Immunofluorescence of ZIKV E protein positive Vero cells; type: cell-based, Zika virus; conditions: ZIKV SZ-WIV01 MOI=1, 50 μM, 48 h, vs DMSO
[7] = system: ZIKV MR766 E protein [ZIKV E蛋白]; assay: Western blot of ZIKV E protein expression; type: cell-based, Zika virus; conditions: 48 h
ZIKV [8] = assay: qRT-PCR of ZIKV replication in A549 cells; type: cell-based, Zika virus; conditions: human A549 cells, 0.4-50 μM
ZIKV [9] = assay: qRT-PCR of ZIKV replication in Huh-7 cells; type: cell-based, Zika virus; conditions: human Huh-7 cells, 0.4-50 μM
ZIKV [10] = assay: Internalization of ZIKV into host cells; type: cell-based, Zika virus
[11] = biological target: T1, RNA-dependent RNA polymerase (RdRp) of ZIKV NS5 [ZIKV的RNA依赖的RNA聚合酶(RdRp)] (Zika virus, UniProt Q32ZE1); assay: ZIKV NS5 RdRp activity, Gluc reporter in NS5-expressing HEK-293T cells; type: cell-based; conditions: 24 h
T1 construct: 1μg ZIKV NS5载体共转染到HEK-293T细胞中; expressed in transfected cells; host or cells: HEK-293T
T1 sequence (Q32ZE1 2517-3419): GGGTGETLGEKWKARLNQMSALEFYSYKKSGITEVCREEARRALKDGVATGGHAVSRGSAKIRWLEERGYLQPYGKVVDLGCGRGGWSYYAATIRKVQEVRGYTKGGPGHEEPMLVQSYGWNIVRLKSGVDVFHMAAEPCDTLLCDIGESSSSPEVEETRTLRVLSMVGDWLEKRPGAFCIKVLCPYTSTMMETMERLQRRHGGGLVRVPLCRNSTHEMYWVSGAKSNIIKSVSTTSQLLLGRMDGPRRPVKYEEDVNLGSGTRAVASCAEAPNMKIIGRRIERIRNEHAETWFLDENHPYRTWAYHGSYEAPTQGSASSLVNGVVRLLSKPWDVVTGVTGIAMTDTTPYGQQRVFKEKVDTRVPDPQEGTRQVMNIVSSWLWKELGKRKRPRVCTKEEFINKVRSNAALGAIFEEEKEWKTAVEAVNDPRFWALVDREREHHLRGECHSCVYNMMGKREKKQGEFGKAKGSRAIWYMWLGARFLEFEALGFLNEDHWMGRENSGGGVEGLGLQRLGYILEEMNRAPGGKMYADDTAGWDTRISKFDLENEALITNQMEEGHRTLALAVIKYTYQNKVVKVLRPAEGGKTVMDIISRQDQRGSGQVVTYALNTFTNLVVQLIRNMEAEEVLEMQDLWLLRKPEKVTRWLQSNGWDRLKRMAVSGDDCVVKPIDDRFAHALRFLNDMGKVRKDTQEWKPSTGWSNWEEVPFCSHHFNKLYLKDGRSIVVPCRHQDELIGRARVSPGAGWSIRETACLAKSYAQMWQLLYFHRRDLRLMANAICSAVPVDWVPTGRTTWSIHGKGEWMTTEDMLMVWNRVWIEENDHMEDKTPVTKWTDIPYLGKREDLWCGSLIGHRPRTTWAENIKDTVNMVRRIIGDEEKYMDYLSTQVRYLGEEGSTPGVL

ZIKV MR766 = assay: Plaque assay, ZIKV MR766 in Vero cells; type: cell-based; conditions: Zika virus, 96 h
[12] = system: Gluc luciferase [荧光素酶Gluc]; assay: Gluc activity in HEK-293T cells expressing only Gluc (counter-test); type: cell-based
ZIKV SZ-WIV01 [13] = assay: Adsorption (binding) assay, qRT-PCR of ZIKV on Vero cell surface; type: cell-based, Zika virus; conditions: ZIKV SZ-WIV01 MOI=1, 50 μM, 4°C, 1 h, vs DMSO
ZIKV SZ-WIV01 [14] = assay: Time-of-addition assay, qRT-PCR, Vero cells; type: cell-based, Zika virus; conditions: ZIKV SZ-WIV01 MOI=1, 50 μM
[15] = biological target: NS5 methyltransferase [NS5甲基转移酶]; conditions: NS5 methyltransferase inhibitors; cited from earlier work
Zika virus [寨卡病毒] [16] = conditions: cited from earlier work; remark: listed apart in the source

Q: Which “inhibition of viral RNA polymerase function” value [1] does the source give for `Nc1ncnc2c([C@@H]3N[C@H](CO)[C@@H](O)[C@H]3O)c[nH]c12` [BCX4430] here?
A: 能抑制病毒RNA聚合酶的功能

Q: With `COc1c(C)c2c(c(O)c1C/C=C(\C)CCC(=O)O)C(=O)OC2` [麦考酚酸] as the molecule, how does the anti-Zika virus activity (Zika virus [寨卡病毒] [2]) read?
A: 具有抗寨卡病毒活性

Q: For `COc1cc(O)c(C(CC(C)C)c2c(O)cc(OC)c(C(=O)C(C)C)c2O)c(O)c1C(=O)C(C)C` [大叶桉酮G, Eucalyprobusone G], which AXL expression (AXL) is on record?
A: 不影响AXL的表达

Q: What about the “inhibition of ZIKV-induced plaque formation” value (ZIKV SZ-WIV01 [3]; Vero cells, 3.125-25 μM, vs DMSO) of the same molecule?
A: 以剂量依赖方式抑制ZIKV感染诱导的噬斑形成

Q: What about the EC50 (ZIKV SZ-WIV01 [3]) of the same molecule?
A: 10.1 ± 3.84 µM

Q: And the “anti-Zika virus activity compared with positive control ribavirin” value (ZIKV SZ-WIV01 [3]; plaque assay, ZIKV SZ-WIV01 and ZIKV MR766)?
A: 优于阳性对照药利巴韦林; also recorded: 显著高于阳性对照药利巴韦林

Q: And the “effect on NS5 expression” value (ZIKV NS5)?
A: 不影响NS5的表达; also recorded: 对NS5的表达没有影响

Q: And the therapeutic index (Vero cells [Vero细胞])?
A: > 49.5

Q: And the selectivity ratio ([4]; vero cells, Vero CC50 relative to anti-ZIKV EC50, strain not stated, read-out: therapeutic index)?
A: > 49.5

Q: And the CC50 at 96 h ([4]; MTT, Vero cells, 4 days)?
A: > 500 µM

Q: And the “inhibition of ZIKV RNA production” value (ZIKV SZ-WIV01 [5])?
A: 以剂量依赖性的方式抑制ZIKV RNA的产生

Q: What about the “ZIKV E protein positive cells (immunofluorescence)” value (ZIKV SZ-WIV01 [6]) of the same molecule?
A: ZIKV E蛋白阳性细胞显著减少

Q: And the “expression of ZIKV E protein (Western blot)” value ([7]; ZIKV MR766, 2 μM or higher)?
A: 几乎完全抑制了E蛋白的表达

Q: And the “expression of ZIKV E protein (Western blot), concentration dependence” value ([7]; ZIKV MR766, 0.08-50 μM)?
A: 随着大叶桉酮G浓度的增加,ZIKV E蛋白的表达逐渐被抑制

Q: And the “inhibition of ZIKV replication” value (ZIKV [8])?
A: 以剂量依赖型方式抑制两种人源细胞中ZIKV的复制

Q: And the “inhibition of ZIKV replication” value (ZIKV [9])?
A: 以剂量依赖型方式抑制两种人源细胞中ZIKV的复制

Q: What about the “internalization of ZIKV into host cells” value (ZIKV [10]) of the same molecule?
A: 抑制ZIKV与宿主细胞的结合和内化

Q: What about the “inhibition of NS5-induced increase in Gluc activity” value ([11]; 10 μmol/L) of the same molecule?
A: 几乎完全抑制

Q: What about the “inhibition of Gluc activity in NS5-expressing cells (RdRp activity)” value ([11]; 1.25-10 μM) of the same molecule?
A: 以剂量依赖性的方式抑制了表达NS5的细胞中的荧光素酶Gluc的活性; also recorded: 可以抑制NS5中RdRp结构域的活性; also recorded: 呈剂量依赖型方式降低Gluc的活性

Q: What about the EC50 (ZIKV MR766) of the same molecule?
A: 0.43 ± 0.08 µM

Q: What about the “effect on Gluc activity in cells expressing only Gluc” value [12] of the same molecule?
A: 对荧光素酶的活性没有影响; also recorded: 对Gluc的活性没有影响

Q: And the “ZIKV adsorption (binding) to host cells” value (ZIKV SZ-WIV01 [13])?
A: 抑制了ZIKV的吸附; also recorded: 抑制ZIKV与宿主细胞的结合

Q: And the “stage of viral life cycle acted on” value (ZIKV SZ-WIV01 [14]; added 0-12 h post infection)?
A: 主要抑制ZIKV RNA的合成

Q: And the “inhibition of ZIKV replication when added 6 h post infection” value (ZIKV SZ-WIV01 [14]; supernatant at 24 h)?
A: 显著抑制了ZIKV的复制

Q: For `Nc1ncnc2c1ncn2[C@@H]1O[C@H](C[C@@H](N)CC[C@H](N)C(=O)O)[C@@H](O)[C@H]1O` [西奈芬净, Sinefungin], which IC50 [15] is on record?
A: 1.18 µM

Q: For `Cc1ccc(C(=O)Nc2ccc(S(=O)(=O)O)c3cc(S(=O)(=O)O)cc(S(=O)(=O)O)c23)cc1NC(=O)c1cccc(NC(=O)Nc2cccc(C(=O)Nc3cc(C(=O)Nc4ccc(S(=O)(=O)O)c5cc(S(=O)(=O)O)cc(S(=O)(=O)O)c45)ccc3C)c2)c1` [苏拉明], which “effect on Zika virus binding and attachment to host cells” value (Zika virus [寨卡病毒] [16]) is on record?
A: 可以影响寨卡病毒的结合以及与宿主细胞的附着

Q: With `Cc1c(-c2ccc(-c3ccccc3F)cc2)nc2ccc(F)cc2c1C(=O)O` [Brequinar] as the molecule, how does the anti-Zika virus activity (Zika virus [寨卡病毒] [2]) read?
A: 具有抗寨卡病毒活性

Q: Which IC50 [15] does the source give for `Nc1ncnc2c1ncn2[C@@H]1O[C@H](CSCC[C@H](N)C(=O)O)[C@@H](O)[C@H]1O` [S-腺苷基-同型半胱氨酸, S-adenosyl-L-homocysteine] here?
A: 0.43 µM

Q: What does the source list for `NC(=O)c1ncn([C@@H]2O[C@H](CO)[C@@H](O)[C@H]2O)n1` [利巴韦林, reference compound]?
A: EC50 (ZIKV SZ-WIV01 [3]): 47.5 ± 4.73 µM; anti-Zika virus activity (Zika virus [寨卡病毒] [2]): 具有抗寨卡病毒活性; EC50 (ZIKV MR766): 58.8 ± 1.86 µM
